Laboratory results published in patent publication US7863276B2, “Salts of modulators of PPAR and methods of treating metabolic disorders” (KALYPSYS, Inc, priority 2005, dated 2011).

How the values were obtained:
Format in all cases: cell-based, murine and human
PPARα = target: T1, PPARα (UniProt Q07869); test: PPARα GAL4 chimera transactivation assay in CV-1 cells; details: transient transfection, luciferase reporter, 20-24 hours, read-out: PPAR alpha
T1 sequence (Q07869 1-468): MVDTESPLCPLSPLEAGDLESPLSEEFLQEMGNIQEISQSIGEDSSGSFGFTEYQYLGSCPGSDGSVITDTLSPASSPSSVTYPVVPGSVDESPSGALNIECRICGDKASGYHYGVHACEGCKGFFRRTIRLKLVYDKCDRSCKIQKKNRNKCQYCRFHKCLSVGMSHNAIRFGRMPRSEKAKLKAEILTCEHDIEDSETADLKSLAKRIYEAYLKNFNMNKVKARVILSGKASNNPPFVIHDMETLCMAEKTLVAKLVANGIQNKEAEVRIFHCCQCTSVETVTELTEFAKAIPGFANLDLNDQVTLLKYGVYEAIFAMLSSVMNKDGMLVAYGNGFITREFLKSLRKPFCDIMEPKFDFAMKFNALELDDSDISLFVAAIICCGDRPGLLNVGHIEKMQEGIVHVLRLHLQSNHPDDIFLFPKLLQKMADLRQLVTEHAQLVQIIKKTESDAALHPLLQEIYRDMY
Source text: (§1) Compounds were screened for functional potency in transient transfection assays in CV-1 cells for their ability to activate the PPAR subtypes (transactivation assay). A previously established chimeric receptor system was utilized to allow comparison of the relative transcriptional activity of the receptor subtypes on the same synthetic response element and to prevent endogenous receptor activation from complicating the interpretation of results. See, for example, Lehmann, J. M.; Moore, L. B.; Smith-Oliver, T. A; Wilkinson, W. O.; Willson, T. M.; Kliewer, S. A., An antidiabetic thiazolidinedione is a high affinity ligand for peroxisome proliferator-activated receptor […], J. Biol. Chem., 1995, 270, 12953-6. The ligand binding domains for murine and human PPARα, PPARγ, and PPARδ are each fused to the yeast transcription factor GAL4 DNA binding domain. CV-1 cells were transiently transfected with expression vectors for the respective PPAR chimera along with a reporter construct containing four or five copies of the GAL4 DNA binding site driving expression of luciferase. […] Luciferase activity was then assayed with Britelite (Perkin Elmer) following the manufacturer's protocol and measured with either the Perkin Elmer Viewlux or Molecular Devices Acquest (see, for example, Kliewer, S. A., et. al. Cell 1995, 83, 813-819). […]

PPARδ = target: T2, PPARδ (UniProt Q03181); test: PPARδ GAL4 chimera transactivation assay in CV-1 cells; details: transient transfection, luciferase reporter, 20-24 hours, read-out: PPAR delta
T2 sequence (Q03181 1-441): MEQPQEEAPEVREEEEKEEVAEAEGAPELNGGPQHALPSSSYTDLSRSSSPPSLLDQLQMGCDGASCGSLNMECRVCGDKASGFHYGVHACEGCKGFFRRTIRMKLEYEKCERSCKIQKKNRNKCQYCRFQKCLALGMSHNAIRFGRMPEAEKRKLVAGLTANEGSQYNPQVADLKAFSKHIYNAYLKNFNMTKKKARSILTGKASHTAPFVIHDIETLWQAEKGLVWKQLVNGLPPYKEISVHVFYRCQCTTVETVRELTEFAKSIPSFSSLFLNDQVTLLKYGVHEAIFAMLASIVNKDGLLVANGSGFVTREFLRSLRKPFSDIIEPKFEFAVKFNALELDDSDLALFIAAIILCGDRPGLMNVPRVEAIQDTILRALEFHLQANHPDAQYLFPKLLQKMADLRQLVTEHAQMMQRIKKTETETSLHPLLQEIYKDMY
Source text: as §1

PPARγ = target: T3, PPARγ (UniProt P37231); test: PPARγ GAL4 chimera transactivation assay in CV-1 cells; details: transient transfection, luciferase reporter, 20-24 hours, read-out: PPAR gamma
T3 sequence (P37231 1-505): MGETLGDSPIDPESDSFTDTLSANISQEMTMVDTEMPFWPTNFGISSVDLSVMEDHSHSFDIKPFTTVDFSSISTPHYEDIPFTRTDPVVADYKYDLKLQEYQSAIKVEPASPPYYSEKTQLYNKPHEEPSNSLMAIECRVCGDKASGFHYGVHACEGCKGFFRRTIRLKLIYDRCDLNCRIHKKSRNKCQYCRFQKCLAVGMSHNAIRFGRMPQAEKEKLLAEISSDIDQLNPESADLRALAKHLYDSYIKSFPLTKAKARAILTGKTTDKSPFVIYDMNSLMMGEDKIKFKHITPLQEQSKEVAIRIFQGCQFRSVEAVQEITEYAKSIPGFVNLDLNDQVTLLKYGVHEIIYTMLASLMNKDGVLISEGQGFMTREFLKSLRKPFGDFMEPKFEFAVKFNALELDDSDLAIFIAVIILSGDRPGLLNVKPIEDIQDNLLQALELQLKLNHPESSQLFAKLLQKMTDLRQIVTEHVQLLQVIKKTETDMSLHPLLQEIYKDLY
Source text: as §1

SMILES | EC50 (PPARα) [µM] | EC50 (PPARδ) [µM] | EC50 (PPARγ) [µM]
C[C@@H]1CN(Cc2ccc(OC(F)(F)F)cc2)C[C@H](C)N1S(=O)(=O)c1cccc2c1C[C@@H](C(=O)O)C2 [Compound 2, (S)-4-[cis-2,6-Dimethyl-4-(4-trifluoromethoxy-benzyl)-piperazine-1-sulfonyl]-indan-2-carboxylic acid] | > 100 | < 5 | 5 to 100
C[C@@H]1CN(c2ccc(OC(F)(F)F)cc2)C[C@H](C)N1S(=O)(=O)c1cccc2c1C[C@@H](C(=O)O)C2 [Compound 1, (S)-4-[cis-2,6-Dimethyl-4-(4-trifluoromethoxy-phenyl)-piperazine-1-sulfonyl]-indan-2-carboxylic acid] | > 100 | < 5 | > 100
